Data taken from PubChem BioAssay AID1745844 (Carcinogenic Potency Database (CPDB), 2022).
Calls of active or inactive are those of the source. The rule behind the calls is not given here.

Tested on: rodent lifetime carcinogenesis bioassay, tumor incidence TD50
Assay: chronic cancer bioassays in animals – CPDB, compiled studies (AID 1745844)

Cc1ccc(S(=O)(=O)Oc2ccc(N=Nc3ccc(-c4ccc(N=Nc5c(O)ccc6cc(S(=O)(=O)O)cc(S(=O)(=O)O)c56)c(C)c4)cc3C)cc2)cc1
TD50 (rat, strain Fischer 344, females, in drinking water, site: Zymbal's gland, lesion: adenoma + carcinoma, dosed 98 weeks, study length 104 weeks): 15.6 mg/kg/day
TD50 (rat, strain Fischer 344, females, in drinking water, site: Zymbal's gland, lesion: adenoma, dosed 98 weeks, study length 104 weeks): 65.4 mg/kg/day
TD50 (rat, strain Fischer 344, females, in drinking water, site: Zymbal's gland, lesion: carcinoma, dosed 98 weeks, study length 104 weeks): 18 mg/kg/day
TD50 (rat, strain Fischer 344, females, in drinking water, site: adrenal medulla, lesion: pheochromocytoma, benign, dosed 98 weeks, study length 104 weeks): 38.3 mg/kg/day
TD50 (rat, strain Fischer 344, females, in drinking water, site: adrenal medulla, lesion: pheochromocytoma, malignant + pheochromocytoma, benign, dosed 98 weeks, study length 104 weeks): 31.6 mg/kg/day
TD50 (rat, strain Fischer 344, females, in drinking water, site: any site (literature study), lesion: several types, types named in the paper, dosed 98 weeks, study length 104 weeks): 2.31 mg/kg/day
TD50 (rat, strain Fischer 344, females, in drinking water, site: clitoral gland + colon + duodenum + jejunum + liver + lung + pharynx + rectum + skin + tongue + Zymbal's gland, lesion: adenoma + adenoma, bilateral + carcinoma + carcinoma, bilateral + adenomatous polyp + mucinous cystadenocarcinoma + hepatocellular c, dosed 98 weeks, study length 104 weeks): 3.11 mg/kg/day
TD50 (rat, strain Fischer 344, females, in drinking water, site: clitoral gland, lesion: adenoma + adenoma, bilateral + carcinoma + carcinoma, bilateral, dosed 98 weeks, study length 104 weeks): 4.75 mg/kg/day
TD50 (rat, strain Fischer 344, females, in drinking water, site: clitoral gland, lesion: adenoma + adenoma, bilateral, dosed 98 weeks, study length 104 weeks): 11.9 mg/kg/day
TD50 (rat, strain Fischer 344, females, in drinking water, site: clitoral gland, lesion: carcinoma + carcinoma, bilateral, dosed 98 weeks, study length 104 weeks): 8.97 mg/kg/day
TD50 (rat, strain Fischer 344, females, in drinking water, site: colon + rectum, lesion: adenomatous polyp + mucinous cystadenocarcinoma, dosed 98 weeks, study length 104 weeks): 136 mg/kg/day
TD50 (rat, strain Fischer 344, females, in drinking water, site: duodenum + jejunum, lesion: adenomatous polyp + mucinous cystadenocarcinoma, dosed 98 weeks, study length 104 weeks): 213 mg/kg/day
TD50 (rat, strain Fischer 344, females, in drinking water, site: liver, lesion: hepatocellular adenoma + hepatocellular carcinoma + neoplastic nodule, dosed 98 weeks, study length 104 weeks): 14.2 mg/kg/day
TD50 (rat, strain Fischer 344, females, in drinking water, site: liver, lesion: hepatocellular carcinoma + neoplastic nodule, dosed 98 weeks, study length 104 weeks): 14.2 mg/kg/day
TD50 (rat, strain Fischer 344, females, in drinking water, site: liver, lesion: hepatocellular carcinoma, dosed 98 weeks, study length 104 weeks): 42.5 mg/kg/day
TD50 (rat, strain Fischer 344, females, in drinking water, site: liver, lesion: neoplastic nodule, dosed 98 weeks, study length 104 weeks): 18 mg/kg/day
TD50 (rat, strain Fischer 344, females, in drinking water, site: lung, lesion: alveolar/bronchiolar adenoma + alveolar/bronchiolar carcinoma, dosed 98 weeks, study length 104 weeks): 23.6 mg/kg/day
TD50 (rat, strain Fischer 344, females, in drinking water, site: lung, lesion: alveolar/bronchiolar adenoma, dosed 98 weeks, study length 104 weeks): 26.3 mg/kg/day
TD50 (rat, strain Fischer 344, females, in drinking water, site: mammary gland, lesion: adenocarcinoma, dosed 98 weeks, study length 104 weeks): 40.6 mg/kg/day
TD50 (rat, strain Fischer 344, females, in drinking water, site: mammary gland, lesion: adenoma, dosed 98 weeks, study length 104 weeks): 67 mg/kg/day
TD50 (rat, strain Fischer 344, females, in drinking water, site: mammary gland, lesion: fibroadenoma, dosed 98 weeks, study length 104 weeks): 11.4 mg/kg/day
TD50 (rat, strain Fischer 344, females, in drinking water, site: multiple organs, lesion: leukemia + mononuclear-cell leukemia, dosed 98 weeks, study length 104 weeks): 9.44 mg/kg/day
TD50 (rat, strain Fischer 344, females, in drinking water, site: pharynx + tongue, lesion: squamous-cell carcinoma + squamous-cell papilloma, dosed 98 weeks, study length 104 weeks): 31.4 mg/kg/day
TD50 (rat, strain Fischer 344, females, in drinking water, site: pharynx + tongue, lesion: squamous-cell carcinoma, dosed 98 weeks, study length 104 weeks): 227 mg/kg/day
TD50 (rat, strain Fischer 344, females, in drinking water, site: pharynx + tongue, lesion: squamous-cell papilloma, dosed 98 weeks, study length 104 weeks): 36.5 mg/kg/day
TD50 (rat, strain Fischer 344, females, in drinking water, site: pharynx, lesion: squamous-cell papilloma, dosed 98 weeks, study length 104 weeks): 72.4 mg/kg/day
TD50 (rat, strain Fischer 344, females, in drinking water, site: pituitary gland, lesion: pars distalis adenoma, dosed 98 weeks, study length 104 weeks): 11.1 mg/kg/day
TD50 (rat, strain Fischer 344, females, in drinking water, site: skin, lesion: basal-cell adenoma + basal-cell carcinoma, dosed 98 weeks, study length 104 weeks): 21.9 mg/kg/day
TD50 (rat, strain Fischer 344, females, in drinking water, site: skin, lesion: basal-cell adenoma, dosed 98 weeks, study length 104 weeks): 28.2 mg/kg/day
TD50 (rat, strain Fischer 344, females, in drinking water, site: skin, lesion: squamous-cell carcinoma + squamous-cell papilloma, dosed 98 weeks, study length 104 weeks): 49.7 mg/kg/day
TD50 (rat, strain Fischer 344, females, in drinking water, site: skin, lesion: squamous-cell carcinoma, dosed 98 weeks, study length 104 weeks): 57.3 mg/kg/day
TD50 (rat, strain Fischer 344, females, in drinking water, site: subcutaneous tissue, lesion: fibrosarcoma + fibroma, dosed 98 weeks, study length 104 weeks): 78.2 mg/kg/day
TD50 (rat, strain Fischer 344, females, in drinking water, site: thyroid gland, lesion: c-cell adenoma, dosed 98 weeks, study length 104 weeks): 48.7 mg/kg/day
TD50 (rat, strain Fischer 344, females, in drinking water, site: thyroid gland, lesion: follicular-cell adenoma + follicular-cell carcinoma, dosed 98 weeks, study length 104 weeks): 28.8 mg/kg/day
TD50 (rat, strain Fischer 344, females, in drinking water, site: thyroid gland, lesion: follicular-cell adenoma, dosed 98 weeks, study length 104 weeks): 53.5 mg/kg/day
TD50 (rat, strain Fischer 344, females, in drinking water, site: thyroid gland, lesion: follicular-cell carcinoma, dosed 98 weeks, study length 104 weeks): 68.9 mg/kg/day
TD50 (rat, strain Fischer 344, females, in drinking water, site: tongue, lesion: squamous-cell carcinoma + squamous-cell papilloma, dosed 98 weeks, study length 104 weeks): 65.7 mg/kg/day
TD50 (rat, strain Fischer 344, females, in drinking water, site: tongue, lesion: squamous-cell papilloma, dosed 98 weeks, study length 104 weeks): 75 mg/kg/day
TD50 (rat, strain Fischer 344, females, in drinking water, site: uterus, lesion: endometrial stromal polyp + endometrial stromal sarcoma, dosed 98 weeks, study length 104 weeks): 16.4 mg/kg/day
TD50 (rat, strain Fischer 344, females, in drinking water, site: uterus, lesion: endometrial stromal polyp, dosed 98 weeks, study length 104 weeks): 20.1 mg/kg/day
TD50 (rat, strain Fischer 344, males, in drinking water, site: Zymbal's gland, lesion: adenoma + carcinoma, dosed 104 weeks, study length 104 weeks): 27 mg/kg/day
TD50 (rat, strain Fischer 344, males, in drinking water, site: Zymbal's gland, lesion: carcinoma, dosed 104 weeks, study length 104 weeks): 29.8 mg/kg/day
TD50 (rat, strain Fischer 344, males, in drinking water, site: adrenal medulla, lesion: pheochromocytoma benign, bilateral + pheochromocytoma, malignant + pheochromocytoma, benign, dosed 104 weeks, study length 104 weeks): 5.94 mg/kg/day
TD50 (rat, strain Fischer 344, males, in drinking water, site: adrenal medulla, lesion: pheochromocytoma, benign, dosed 104 weeks, study length 104 weeks): 6.69 mg/kg/day
TD50 (rat, strain Fischer 344, males, in drinking water, site: any site (literature study), lesion: several types, types named in the paper, dosed 104 weeks, study length 104 weeks): 3.23 mg/kg/day
TD50 (rat, strain Fischer 344, males, in drinking water, site: liver + skin + Zymbal's gland, lesion: hepatocellular carcinoma + neoplastic nodule + basal-cell adenoma + basal-cell carcinoma + keratoacanthoma + sebaceous gland carci, dosed 104 weeks, study length 104 weeks): 2.8 mg/kg/day
TD50 (rat, strain Fischer 344, males, in drinking water, site: liver, lesion: hepatocellular adenoma + hepatocellular carcinoma + neoplastic nodule, dosed 104 weeks, study length 104 weeks): 7.02 mg/kg/day
TD50 (rat, strain Fischer 344, males, in drinking water, site: liver, lesion: hepatocellular carcinoma + neoplastic nodule, dosed 104 weeks, study length 104 weeks): 7.02 mg/kg/day
TD50 (rat, strain Fischer 344, males, in drinking water, site: liver, lesion: hepatocellular carcinoma, dosed 104 weeks, study length 104 weeks): 20.2 mg/kg/day
TD50 (rat, strain Fischer 344, males, in drinking water, site: liver, lesion: neoplastic nodule, dosed 104 weeks, study length 104 weeks): 10.4 mg/kg/day
TD50 (rat, strain Fischer 344, males, in drinking water, site: lung, lesion: alveolar/bronchiolar adenoma + alveolar/bronchiolar carcinoma, dosed 104 weeks, study length 104 weeks): 47.2 mg/kg/day
TD50 (rat, strain Fischer 344, males, in drinking water, site: lung, lesion: alveolar/bronchiolar adenoma, dosed 104 weeks, study length 104 weeks): 39 mg/kg/day
TD50 (rat, strain Fischer 344, males, in drinking water, site: multiple organs, lesion: mononuclear-cell leukemia, dosed 104 weeks, study length 104 weeks): 12.3 mg/kg/day
TD50 (rat, strain Fischer 344, males, in drinking water, site: pharynx + tongue, lesion: squamous-cell papilloma, dosed 104 weeks, study length 104 weeks): 71 mg/kg/day
TD50 (rat, strain Fischer 344, males, in drinking water, site: skin, lesion: basal-cell adenoma + basal-cell carcinoma, dosed 104 weeks, study length 104 weeks): 3.3 mg/kg/day
TD50 (rat, strain Fischer 344, males, in drinking water, site: skin, lesion: basal-cell adenoma, dosed 104 weeks, study length 104 weeks): 3.58 mg/kg/day
TD50 (rat, strain Fischer 344, males, in drinking water, site: skin, lesion: basal-cell carcinoma, dosed 104 weeks, study length 104 weeks): 22.8 mg/kg/day
TD50 (rat, strain Fischer 344, males, in drinking water, site: skin, lesion: keratoacanthoma, dosed 104 weeks, study length 104 weeks): 20.4 mg/kg/day
TD50 (rat, strain Fischer 344, males, in drinking water, site: skin, lesion: sebaceous gland carcinoma + sebaceous adenoma, dosed 104 weeks, study length 104 weeks): 23.4 mg/kg/day
TD50 (rat, strain Fischer 344, males, in drinking water, site: skin, lesion: squamous-cell carcinoma + squamous-cell papilloma, dosed 104 weeks, study length 104 weeks): 12.7 mg/kg/day
TD50 (rat, strain Fischer 344, males, in drinking water, site: skin, lesion: squamous-cell carcinoma, dosed 104 weeks, study length 104 weeks): 16.2 mg/kg/day
TD50 (rat, strain Fischer 344, males, in drinking water, site: testis, lesion: interstitial-cell adenoma, bilateral + interstitial-cell adenoma, dosed 104 weeks, study length 104 weeks): 3.39 mg/kg/day

Oc1ccc(O)cc1
TD50 (mouse, strain B6C3F1, females, by gavage, site: liver, lesion: hepatocellular adenoma + hepatocellular carcinoma + neoplastic nodule, dosed 103 weeks, study length 105 weeks): 122 mg/kg/day
TD50 (mouse, strain B6C3F1, females, by gavage, site: liver, lesion: hepatocellular adenoma + hepatocellular carcinoma, dosed 103 weeks, study length 105 weeks): 122 mg/kg/day
TD50 (mouse, strain B6C3F1, females, by gavage, site: liver, lesion: hepatocellular adenoma, dosed 103 weeks, study length 105 weeks): 65 mg/kg/day
TD50 (mouse, strain B6C3F1, females, by gavage, site: lung, lesion: alveolar/bronchiolar adenoma + alveolar/bronchiolar carcinoma, dosed 103 weeks, study length 105 weeks): 19200 mg/kg/day
TD50 (mouse, strain B6C3F1, females, in feed, site: liver, lesion: hepatocellular adenoma, dosed 96 weeks, study length 96 weeks): 17900 mg/kg/day
TD50 (mouse, strain B6C3F1, males, by gavage, site: any site (literature study), lesion: several types, types named in the paper, dosed 103 weeks, study length 104 weeks): 497 mg/kg/day (inactive)
TD50 (mouse, strain B6C3F1, males, by gavage, site: liver, lesion: hepatocellular adenoma + hepatocellular carcinoma + neoplastic nodule, dosed 103 weeks, study length 104 weeks): 383 mg/kg/day
TD50 (mouse, strain B6C3F1, males, in feed, site: kidney, lesion: adenoma, dosed 96 weeks, study length 96 weeks): 5320 mg/kg/day
TD50 (mouse, strain B6C3F1, males, in feed, site: liver, lesion: hepatocellular adenoma, dosed 96 weeks, study length 96 weeks): 1450 mg/kg/day
TD50 (rat, strain F344/DuCrj, females, in feed, site: liver, lesion: hepatocellular carcinoma, dosed 104 weeks, study length 104 weeks): 8080 mg/kg/day
TD50 (rat, strain F344/DuCrj, males, in feed, site: kidney, lesion: adenoma, dosed 104 weeks, study length 104 weeks): 349 mg/kg/day
TD50 (rat, strain Fischer 344, females, by gavage, site: all sites, lesion: mononuclear-cell leukemia, dosed 103 weeks, study length 104 weeks): 55.8 mg/kg/day
TD50 (rat, strain Fischer 344, females, by gavage, site: any site (literature study), lesion: several types, types named in the paper, dosed 103 weeks, study length 104 weeks): 51.6 mg/kg/day
TD50 (rat, strain Fischer 344, males, by gavage, site: adrenal medulla, lesion: pheochromocytoma benign, bilateral + pheochromocytoma, benign, dosed 103 weeks, study length 104 weeks): 48.2 mg/kg/day
TD50 (rat, strain Fischer 344, males, by gavage, site: adrenal medulla, lesion: pheochromocytoma benign, bilateral + pheochromocytoma, malignant + pheochromocytoma, benign, dosed 103 weeks, study length 104 weeks): 40.4 mg/kg/day
TD50 (rat, strain Fischer 344, males, by gavage, site: any site (literature study), lesion: several types, types named in the paper, dosed 103 weeks, study length 104 weeks): 41.8 mg/kg/day
TD50 (rat, strain Fischer 344, males, by gavage, site: kidney, lesion: tubule adenoma, dosed 103 weeks, study length 104 weeks): 64.7 mg/kg/day
TD50 (rat, strain Fischer 344, males, by gavage, site: liver, lesion: hepatocellular adenoma + hepatocellular carcinoma + neoplastic nodule, dosed 103 weeks, study length 104 weeks): 5710 mg/kg/day
